{"source": "patent US6875425B2", "about": "“Skin lightening agents, compositions and methods” (Unilever Home & Personal Care USA, priority 2002, dated 2005)", "system": "mushroom tyrosinase", "experiment": "Mushroom Tyrosinase Assay", "type": "biochemical", "conditions": "for % of Control (Melanin Synthesis): L-DOPA substrate, slope of 475-nm absorbency vs. ethanol control", "procedure": "Mushroom tyrosinase inhibition is indicative of reduction in melanin synthesis, thereby showing skin lightening effect. […] Following an initial measurement of background absorbency at 475-nm, 20 microliters of mushroom tyrosinase (Sigma T-7755; 6050 units/ml) was added and incubated at room temperature. Absorbency is read at 475-nm over the following time points: 0, 2, 4, and 6.5 minutes. The data is plotted as 475-nm absorbency vs. time (minutes) and the slope of the line is calculated (ΔAbs 475nm/min). Values are expressed as the percentage of the respective untreated ethanol control reaction. [formula]", "data": [{"smiles": "Oc1ccc(C2SCCCS2)c(O)c1", "note": "[1,3-di-Thiane Resorcinol]", "values": [{"measurement": "% of Control (Melanin Synthesis)", "setting": "0.1 uM compound", "value": "87 % of Control"}, {"measurement": "% of Control (Melanin Synthesis)", "setting": "1 uM compound", "value": "57 % of Control"}, {"measurement": "% of Control (Melanin Synthesis)", "setting": "10 uM compound", "value": "48 % of Control"}, {"measurement": "% of Control (Melanin Synthesis)", "setting": "100 uM compound", "value": "47 % of Control"}]}, {"smiles": "CCc1ccc(O)cc1O", "note": "[4-Ethyl Resorcinol]", "values": [{"measurement": "% of Control (Melanin Synthesis)", "setting": "0.1 uM compound", "value": "73 % of Control"}, {"measurement": "% of Control (Melanin Synthesis)", "setting": "1 uM compound", "value": "46 % of Control"}, {"measurement": "% of Control (Melanin Synthesis)", "setting": "10 uM compound", "value": "31 % of Control"}, {"measurement": "% of Control (Melanin Synthesis)", "setting": "100 uM compound", "value": "21 % of Control"}]}, {"smiles": "Oc1cccc(O)c1", "note": "[Resorcinol]", "values": [{"measurement": "% of Control (Melanin Synthesis)", "setting": "0.1 uM compound", "value": "97 % of Control"}, {"measurement": "% of Control (Melanin Synthesis)", "setting": "1 uM compound", "value": "98 % of Control"}, {"measurement": "% of Control (Melanin Synthesis)", "setting": "10 uM compound", "value": "98 % of Control"}, {"measurement": "% of Control (Melanin Synthesis)", "setting": "100 uM compound", "value": "100 % of Control"}, {"measurement": "activity in the mushroom tyrosinase assay (in words)", "setting": "summary of Table 8", "value": "does not display activity"}]}]}
